Source: patent publication US4374040A, “Aminoalkylenephosphonic acids and salts thereof and their use in aqueous systems” (Buckman Laboratories, Inc., priority 1980, dated 1983)

Experiments:
[1] = Barium Sulfate Antiprecipitation Tests; details: pH 7; for Percent inhibition of barium sulfate precipitation: 18 hours, 25° C.
Experimental: To evaluate the effect of the aminoalkylenephosphonic acids of this invention in inhibiting the precipitation of barium sulfate, the desire volumes of stock solutions of the phosphonic acids or their sodium salts (prepared with demineralized water) were added to 10-ml. aliquots of a barium chloride solution containing 5.35 g. BaCl2.H2 O per liter. The volume of each was made up to 175 ml. with demineralized water, and the pH was adjusted to 7.0 with dilute NaOH or HCl. A 25-ml. aliquot of a sodium sulfate solution (1.24 g. Na2 SO4 per liter) was then added to each. The test solutions were agitated on a gyratory shaker table for 18 hours at 25° C. At the end of this time, insoluble material was removed by filtration and the barium ion concentration was determined with an atomic absorption unit. The percent inhibition was calulated and the results are included in Table 3. Compound C was described in Example 15 and Compound H was described in Example 16. Compound I was an aqueous solution containing 22.5 percent of the trisodium salt of tetrahydro-N,N-bis(phosphonomethyl)-3-thiophenamine 1,1-dioxide and 7.5 percent of a poly(acrylic acid) having a molecular weight of about 4000. Compound J was an aqueous solution containing 7.5 percent of tetrahydro-N,N-bis(phosphononmethyl)-3-thiophenamine 1,1-dioxide and 22.5 percent of a poly(acrylic acid) having a molecular weight of about 4000. Since the percent inhibition results were lower that those obtainined in Examples 15 and 16, a well known scale inhibitor was included in this test for comparison.

[2] = Calcium Carbonate Antiprecipitation Tests; details: 18 hours, 25° C.
Experimental: To evaluate the effect of the aminoalkylenephosphonic acids of this invention on the precipitation of calcium carbonate, measured volumes of stock solution (prepared with demineralized water) of the phosphonic acids or their sodium salts were added to 100 ml. portions of a calcium chloride solution (0.2936 g. CaCl2.2H2 O per 100 ml. of solution). Then 100 ml. of a sodium bicarbonate solution (0.168 g. NaHCO3 per 100 ml. of solution) was added to each portion of calcium chloride solution. The test solutions were then agitated on a gyratory shaker table for 18 hours at a temperature of 25° C. At the end of this time, insoluble material was removed by filtration through a Millipore membrane filter, and the calcium ion concentration in the filtrate was determined with an atomic absorption spectrophotometer. […] The compounds tested were as follows:
A. Tetrahydro-N,N-bis(phosphonomethyl)-3-thiophenamine 1,1-dioxide (30 percent)
B. Thirty percent solution of the trisodium salt of A
D. Tetrahydro-N,N,N',N'-tetrakis(phosphonomethyl)-3,4-thiophenediamine 1,1-dioxide (30 percent)
E. 3-Hydrazinotetrahydro-N,N-bis(phosphonomethyl)thiophene 1,1-dioxide (30 percent)
F. Tetrahydro-N-(2-hydroxyethyl)-N-(phosphonomethyl)-3-thiophenamine 1,1-dioxide (30 percent)

[3] = Calcium Sulfate Antiprecipitation Tests; details: pH 7, 18 hours, 50° C.
Experimental: Inhibition of calcium sulfate precipitation by the aminoalkylenephosphonic acids of this invention was evaluated by adding the desired volumes of stock solutions of the phosphonic acids or their sodium salts (prepared with demineralized water) to 10-ml. aliquots of a calcium chloride solution containing 162.9 g. of CaCl2 per liter. The volume of each was made up to 175 ml. with demineralized water, and the pH was adjusted to 7.0 with dilute NaOH or HCl. A 25-ml. aliquot of a sodium sulfate solution (83.84 g. Na2 SO4 per liter) was then added to each. The test solutions were maintained for 18 hours at a temperature of 50° C. A portion of each was filtered while still hot to remove insoluble materials and the filtrate was analyzed for calcium by means of an atomic absorption instrument. The percent inhibition was calculated and the results are included in Table 2.

Compound | percent inhibition of calcium carbonate precipitation ([2]; pH 8.5, 1 parts per million) | percent inhibition of calcium carbonate precipitation ([2]; pH 8.5, 3 parts per million) | percent inhibition of calcium carbonate precipitation ([2]; pH 8.5, 5 parts per million) | percent inhibition of calcium carbonate precipitation ([2]; pH 8.5, 10 parts per million) | percent inhibition of calcium carbonate precipitation ([2]; pH 8.5, 25 parts per million) | percent inhibition of calcium carbonate precipitation ([2]; pH 8.5, 50 parts per million) | percent inhibition of calcium carbonate precipitation ([2]; pH 9.0, 1 parts per million) | percent inhibition of calcium carbonate precipitation ([2]; pH 9.0, 3 parts per million) | percent inhibition of calcium carbonate precipitation ([2]; pH 9.0, 5 parts per million) | percent inhibition of calcium carbonate precipitation ([2]; pH 9.0, 10 parts per million) | percent inhibition of calcium carbonate precipitation ([2]; pH 9.0, 25 parts per million) | percent inhibition of calcium carbonate precipitation ([2]; pH 9.0, 50 parts per million) | Percent inhibition of calcium sulfate precipitation ([3]; 1 parts per million) | Percent inhibition of calcium sulfate precipitation ([3]; 3 parts per million) | Percent inhibition of calcium sulfate precipitation ([3]; 5 parts per million) | Percent inhibition of calcium sulfate precipitation ([3]; 10 parts per million) | Percent inhibition of calcium sulfate precipitation ([3]; 25 parts per million) | Percent inhibition of calcium sulfate precipitation ([3]; 50 parts per million) | also measured
O=P(O)(O)CN(CP(=O)(O)O)CP(=O)(O)O [Compound K, nitrilotris(methylenephosphonic acid)] | – | – | – | – | – | – | – | – | – | – | – | – | – | – | – | – | – | – | Percent inhibition of barium sulfate precipitation ([1]; 5 parts per million): 5%; Percent inhibition of barium sulfate precipitation ([1]; 10 parts per million): 5%; Percent inhibition of barium sulfate precipitation ([1]; 25 parts per million): 6%; Percent inhibition of barium sulfate precipitation ([1]; 50 parts per million): 12%; effectiveness in inhibiting barium sulfate precipitation, compared with the combinations ([1]; in words): less than that of the combinations containing tetrahydro-N,N-bis(phosphonomethyl)-3-thiophenamine 1,1-dioxide
O=P(O)(O)CN(CP(=O)(O)O)C1CCS(=O)(=O)C1 (centres unmarked) [B] | 92% | 87% | 92% | 91% | 93% | 94% | 9% | 11% | 89% | 85% | 16% | 86% | 40% | 52% | 55% | 78% | 95% | 100% | –
O=P(O)(O)CN(CP(=O)(O)O)C1CS(=O)(=O)CC1N(CP(=O)(O)O)CP(=O)(O)O (centres unmarked) [D, Tetrahydro-N,N,N',N'-tetrakis(phosphonomethyl)-3,4-thiophenediamine 1,1-dioxide] | 78% | 73% | 73% | 71% | 70% | 70% | – | – | – | – | – | – | – | – | – | – | – | – | –
O=P(O)(O)CN(CP(=O)(O)O)NC1CCS(=O)(=O)C1 (centres unmarked) [E, 3-Hydrazinotetrahydro-N,N-bis(phosphonomethyl)thiophene 1,1-dioxide] | 82% | 82% | 77% | 79% | 100% | 91% | 78% | 79% | 79% | 79% | 70% | 86% | 38% | 38% | 38% | 38% | 40% | 45% | –
O=P(O)(O)CN(CCO)C1CCS(=O)(=O)C1 (centres unmarked) [F, Tetrahydro-N-(2-hydroxyethyl)-N-(phosphonomethyl)-3-thiophenamine 1,1-dioxide] | 27% | 25% | 27% | 25% | 38% | 32% | – | – | – | – | – | – | 41% | 38% | 39% | 43% | 61% | 88% | –
O=P(O)(O)CN(CP(=O)(O)O)C1CCS(=O)(=O)C1 (centres unmarked) [A, Tetrahydro-N,N-bis(phosphonomethyl)-3-thiophenamine 1,1-dioxide] | 83% | 84% | 78% | 85% | 73% | 71% | – | – | – | – | – | – | – | – | – | – | – | – | –
